{"source": "patent US20230255864A1", "about": "“NOVEL COMPOSITIONS COMBINING HEMP DERIVATIVES AND AT LEAST ONE PEPTIDE AND USE THEREOF” (FRANCE COSMEPHYL-LAB, priority 2020, published 2023)", "key": {"[1]": {"tested_on": "RAW 267.4 murine macrophages", "assay": "Cell viability of murine macrophages (WST-1 mitochondrial respiration), in parallel with NO release", "type": "cell-based", "details": "sample alone at 2.5 weight %", "method": "(§1) MURINS RAW 267.4 Macrophage cell line (Sigma-Aldrich, No. P6110401, Lot. 091006), low number of passages (less than 50).\n(§2) Complete medium: DMEM with stabilized L-glutamine (Dulbecco's Minimum Essential Medium, PAN BIOTECH. Lot 974251) supplemented with Penicillin 100 IU/ml and streptomycin 100 μg/m1 (PAN BIOTECH, Lot 225614), and 10% inactivated calf serum (PAN BIOTECH, Lot P460518), pH 7.2, freshly prepared, stored for less than 3 weeks.\n(§3) Cannabidiol (CBD) is diluted in DMSO (10 mg/mL storage solution), and subjected to an ultrasonic bath for 20 minutes. The Neutrazen™ solution is diluted in PBS (Phosphate buffer saline, Sigma-Aldrich).\n(§4) RAW 267.4 murine macrophages were inoculated into 48-well tissue culture plates at a concentration of 1.10^5 cells/ml (200 μl/well) and incubated for 24 hours at 37° C. (5% CO2).\n(§5) At the end of the incubation period, the culture medium was replaced with 200 μl of medium containing the appropriate concentrations of the material to be tested, and the cells were incubated at 37° C. (5% CO2) for one hour.\n(§6) At the end of the incubation period, pro-inflammatory E. coli LPS was added to the cell cultures (1 μg/ml. Then the cells were incubated at 37° C. (5% CO2) for 24 hours.\n(§7) In parallel with the evaluation of the release of NO, the cell viability was measured to validate the tests. Vital Stain Reagent WST-1 was used to measure cellular mitochondrial respiration. For this, the culture medium was decanted and 100 μl of WST-1 reagent ( 1/10 dilution) were added to each well. After an incubation period of 30 min at 37° C. (5% CO2), the Optical Density (OD) of each well was read at a wavelength of 450 nm by an Infinite M200 Pro fluorescence-luminescence reader (TECAN). The results obtained for the wells treated with the test material were compared with those of the untreated control wells (DMSO, 100% viability) and converted into percentage values.\n(§8) Inhibition of NO release and inhibition of cell viability were expressed as a percentage relative to the negative controls: […]\n(§9) The concentrations of test material causing a 50% decrease in NO release (IC50 (NO release)) and a 50% decrease in cell viability (IC50 (cell viability)) respectively were calculated using TableCurve software Version 2.0.\n(§10) Analysis of the anti-inflammatory activity and of the cell viability of the cannabidiol/palmitoyl tripeptide-8 (Neutrazen™) association in a mixture by isobologram analysis. For each concentration of Neutrazen™ (0.01, 0.025, 0.05 and 0.1%), different concentrations of CBD are tested (0.01, 0.025, 0.05, 0.1, 0.25, 0.5, 1 and 2.5%) to determine both the production of NO and cell viability.\n(§11) The results obtained with the different mixtures of CBD and Neutrazen™ made it possible to calculate the pairs of concentrations corresponding to a 50% reduction in the production of NO and a 50% reduction in cell viability."}, "[2]": {"assay": "Cell viability of murine macrophages (WST-1 mitochondrial respiration), in parallel with NO release", "type": "cell-based", "details": "mouse, read-out: Cell viability (% as compared to the negative control)", "method": "as §1, §2, §3, §4, §5, §6, §7, §8, §9, §10, §11"}}, "note": "Several values for one entry are separate records, joined by “and”; a condition that tells them apart may be missing. Equal entries are not always repeated. Where two headings read alike, the source gives them in different places.", "data": [{"smiles": "C=C(C)[C@@H]1CCC(C)=C[C@H]1c1c(O)cc(CCCCC)cc1O", "note": "[CBD]", "values": [{"measurement": "Cell viability (% as compared to the negative control)", "setting": "[1]", "value": "1.98% and 2.14% and 0.46%"}, {"measurement": "viability at 25 h, 0.01 weight %", "setting": "[2]; pH 7.2, CBD 0.01 weight % in mixture with NeutraZen 0.01%", "value": 98.6, "unit": "%"}, {"measurement": "viability at 25 h, 0.01 weight %", "setting": "[2]; pH 7.2, CBD 0.01 weight % in mixture with NeutraZen 0.025%", "value": 102, "unit": "%"}, {"measurement": "viability at 25 h, 0.01 weight %", "setting": "[2]; pH 7.2, CBD 0.01 weight % in mixture with NeutraZen 0.05%", "value": 98, "unit": "%"}, {"measurement": "viability at 25 h, 0.01 weight %", "setting": "[2]; pH 7.2, CBD 0.01 weight % in mixture with NeutraZen 0.1%", "value": 101, "unit": "%"}, {"measurement": "viability at 25 h, 0.025 weight %", "setting": "[2]; pH 7.2, CBD 0.025 weight % in mixture with NeutraZen 0.01%", "value": 99.7, "unit": "%"}, {"measurement": "viability at 25 h, 0.025 weight %", "setting": "[2]; pH 7.2, CBD 0.025 weight % in mixture with NeutraZen 0.025%", "value": 104, "unit": "%"}, {"measurement": "viability at 25 h, 0.025 weight %", "setting": "[2]; pH 7.2, CBD 0.025 weight % in mixture with NeutraZen 0.05%", "value": 99.1, "unit": "%"}, {"measurement": "viability at 25 h, 0.025 weight %", "setting": "[2]; pH 7.2, CBD 0.025 weight % in mixture with NeutraZen 0.1%", "value": 99.7, "unit": "%"}, {"measurement": "viability at 25 h, 0.05 weight %", "setting": "[2]; pH 7.2, CBD 0.05 weight % in mixture with NeutraZen 0.01%", "value": 97.7, "unit": "%"}, {"measurement": "viability at 25 h, 0.05 weight %", "setting": "[2]; pH 7.2, CBD 0.05 weight % in mixture with NeutraZen 0.025%", "value": 96.2, "unit": "%"}, {"measurement": "viability at 25 h, 0.05 weight %", "setting": "[2]; pH 7.2, CBD 0.05 weight % in mixture with NeutraZen 0.05%", "value": 101, "unit": "%"}, {"measurement": "viability at 25 h, 0.05 weight %", "setting": "[2]; pH 7.2, CBD 0.05 weight % in mixture with NeutraZen 0.1%", "value": 103, "unit": "%"}, {"measurement": "viability at 25 h, 0.1 weight %", "setting": "[2]; pH 7.2, CBD 0.1 weight % in mixture with NeutraZen 0.01%", "value": 102, "unit": "%"}, {"measurement": "viability at 25 h, 0.1 weight %", "setting": "[2]; pH 7.2, CBD 0.1 weight % in mixture with NeutraZen 0.025%", "value": 100, "unit": "%"}, {"measurement": "viability at 25 h, 0.1 weight %", "setting": "[2]; pH 7.2, CBD 0.1 weight % in mixture with NeutraZen 0.05%", "value": 100, "unit": "%"}, {"measurement": "viability at 25 h, 0.1 weight %", "setting": "[2]; pH 7.2, CBD 0.1 weight % in mixture with NeutraZen 0.1%", "value": 97.1, "unit": "%"}, {"measurement": "viability at 25 h, 0.25 weight %", "setting": "[2]; pH 7.2, CBD 0.25 weight % in mixture with NeutraZen 0.01%", "value": 92.2, "unit": "%"}, {"measurement": "viability at 25 h, 0.25 weight %", "setting": "[2]; pH 7.2, CBD 0.25 weight % in mixture with NeutraZen 0.025%", "value": 88.5, "unit": "%"}, {"measurement": "viability at 25 h, 0.25 weight %", "setting": "[2]; pH 7.2, CBD 0.25 weight % in mixture with NeutraZen 0.05%", "value": 98.6, "unit": "%"}, {"measurement": "viability at 25 h, 0.25 weight %", "setting": "[2]; pH 7.2, CBD 0.25 weight % in mixture with NeutraZen 0.1%", "value": 95.7, "unit": "%"}, {"measurement": "viability at 25 h, 0.5 weight %", "setting": "[2]; pH 7.2, CBD 0.5 weight % in mixture with NeutraZen 0.01%", "value": 6.34, "unit": "%"}, {"measurement": "viability at 25 h, 0.5 weight %", "setting": "[2]; pH 7.2, CBD 0.5 weight % in mixture with NeutraZen 0.025%", "value": 6.95, "unit": "%"}, {"measurement": "viability at 25 h, 0.5 weight %", "setting": "[2]; pH 7.2, CBD 0.5 weight % in mixture with NeutraZen 0.05%", "value": 7.76, "unit": "%"}, {"measurement": "viability at 25 h, 0.5 weight %", "setting": "[2]; pH 7.2, CBD 0.5 weight % in mixture with NeutraZen 0.1%", "value": 8.56, "unit": "%"}, {"measurement": "viability at 25 h, 1 weight %", "setting": "[2]; pH 7.2, CBD 1 weight % in mixture with NeutraZen 0.01%", "value": 5.66, "unit": "%"}, {"measurement": "viability at 25 h, 1 weight %", "setting": "[2]; pH 7.2, CBD 1 weight % in mixture with NeutraZen 0.025%", "value": 5.19, "unit": "%"}, {"measurement": "viability at 25 h, 1 weight %", "setting": "[2]; pH 7.2, CBD 1 weight % in mixture with NeutraZen 0.05%", "value": 7.74, "unit": "%"}, {"measurement": "viability at 25 h, 1 weight %", "setting": "[2]; pH 7.2, CBD 1 weight % in mixture with NeutraZen 0.1%", "value": 8.58, "unit": "%"}, {"measurement": "viability at 25 h, 2.5 weight %", "setting": "[2]; pH 7.2, CBD 2.5 weight % in mixture with NeutraZen 0.01%", "value": 7.21, "unit": "%"}, {"measurement": "viability at 25 h, 2.5 weight %", "setting": "[2]; pH 7.2, CBD 2.5 weight % in mixture with NeutraZen 0.025%", "value": 4.12, "unit": "%"}, {"measurement": "viability at 25 h, 2.5 weight %", "setting": "[2]; pH 7.2, CBD 2.5 weight % in mixture with NeutraZen 0.05%", "value": 8.14, "unit": "%"}, {"measurement": "viability at 25 h, 2.5 weight %", "setting": "[2]; pH 7.2, CBD 2.5 weight % in mixture with NeutraZen 0.1%", "value": 8.93, "unit": "%"}, {"measurement": "viability at 25 h, 0.01 weight %", "setting": "[2]; pH 7.2, sample alone at 0.01 weight %", "value": 99.4, "unit": "%"}, {"measurement": "viability at 25 h, 0.025 weight %", "setting": "[2]; pH 7.2, sample alone at 0.025 weight %", "value": 98.3, "unit": "%"}, {"measurement": "viability at 25 h, 0.05 weight %", "setting": "[2]; pH 7.2, sample alone at 0.05 weight %", "value": 97.9, "unit": "%"}, {"measurement": "viability at 25 h, 0.1 weight %", "setting": "[2]; pH 7.2, sample alone at 0.1 weight %", "value": 53.1, "unit": "%"}, {"measurement": "viability at 25 h, 0.25 weight %", "setting": "[2]; pH 7.2, sample alone at 0.25 weight %", "value": 8.24, "unit": "%"}, {"measurement": "viability at 25 h, 0.5 weight %", "setting": "[2]; pH 7.2, sample alone at 0.5 weight %", "value": 4.73, "unit": "%"}, {"measurement": "viability at 25 h, 1 weight %", "setting": "[2]; pH 7.2, sample alone at 1 weight %", "value": 2.9, "unit": "%"}]}]}
